Data published in ChEMBL document CHEMBL4219077, “Methyllucidone inhibits STAT3 activity by regulating the expression of the protein tyrosine phosphatase MEG2 in DU145 prostate carcinoma cells” (Bioorg Med Chem Lett, 2018).
Calls of active or inactive are those of the source. No cut-off for these calls is given here.

Assays:
DU-145 [1] = assay: Cell cycle arrest in human DU145 cells assessed as apoptotic cells at 10 uM after 48 hrs by FACS analysis (reference value: 8.1%); assay type: functional
[2] = biological target: T1, PTPN9/STAT3 (Homo sapiens) (UniProt P40763+P43378); assay: Modulation of MEG2 in human HCT116 cells harboring pSTAT3 (unknown origin)-TA-Luc assessed as inhibition of STAT3 transcriptional activity after 24 hrs by luciferase reporter gene assay; assay type: cell-based
[3] = biological target: T1, PTPN9/STAT3 (Homo sapiens); assay: Modulation of MEG2 in human DU145 cells assessed as inhibition of STAT3 phosphorylation at Tyr-705 residue at 20 uM after 24 hrs by Western blot method; assay type: cell-based
DU-145 [4] = assay: Cell cycle arrest in human DU145 cells assessed as apoptotic cells at 10 uM after 12 hrs by FACS analysis (reference value: 8.1%); assay type: functional
[5] = biological target: Janus Kinase (JAK) (Homo sapiens) (UniProt P52333+P23458+O60674+P29597); assay: Inhibition of JAK phosphorylation (unknown origin); assay type: protein assay
[6] = biological target: Signal transducer and activator of transcription 3 (Homo sapiens) (UniProt P40763); assay: Inhibition of STAT3 phosphorylation at Tyr-705 residue in human DU145 cells harboring SHP2 siRNA at 10 uM after 12 hrs by Western blot method; assay type: cell-based
[7] = biological target: T1, PTPN9/STAT3 (Homo sapiens); assay: Modulation of MEG2 in human DU145 cells assessed as inhibition of STAT3 activation by measuring down regulation of survivin level at 10 uM after 24 hrs by Western blot method; assay type: cell-based
DU-145 [8] = assay: Cell cycle arrest in human DU145 cells assessed as apoptotic cells at 10 uM after 24 hrs by FACS analysis (reference value: 8.1%); assay type: functional
[9] = biological target: T1, PTPN9/STAT3 (Homo sapiens); assay: Modulation of MEG2 in human LNCAP cells assessed as inhibition of IL-6-stimulated STAT3 phosphorylation at 10 uM pretreated for 12 hrs followed by IL-6 stimulation for 30 mins by Western blot method; assay type: cell-based
DU-145 [10] = assay: Cell cycle arrest in human DU145 cells assessed as accumulation at G2/M phase at 10 uM after 48 hrs by FACS analysis (reference value: 24%); assay type: functional
[11] = biological target: T2, Signal transducer and activator of transcription 1-alpha/beta (Homo sapiens) (UniProt P42224); assay: Inhibition of STAT1 phosphorylation in human DU145 cells after 24 hrs by Western blot method; assay type: cell-based
T2 sequence (whole entry): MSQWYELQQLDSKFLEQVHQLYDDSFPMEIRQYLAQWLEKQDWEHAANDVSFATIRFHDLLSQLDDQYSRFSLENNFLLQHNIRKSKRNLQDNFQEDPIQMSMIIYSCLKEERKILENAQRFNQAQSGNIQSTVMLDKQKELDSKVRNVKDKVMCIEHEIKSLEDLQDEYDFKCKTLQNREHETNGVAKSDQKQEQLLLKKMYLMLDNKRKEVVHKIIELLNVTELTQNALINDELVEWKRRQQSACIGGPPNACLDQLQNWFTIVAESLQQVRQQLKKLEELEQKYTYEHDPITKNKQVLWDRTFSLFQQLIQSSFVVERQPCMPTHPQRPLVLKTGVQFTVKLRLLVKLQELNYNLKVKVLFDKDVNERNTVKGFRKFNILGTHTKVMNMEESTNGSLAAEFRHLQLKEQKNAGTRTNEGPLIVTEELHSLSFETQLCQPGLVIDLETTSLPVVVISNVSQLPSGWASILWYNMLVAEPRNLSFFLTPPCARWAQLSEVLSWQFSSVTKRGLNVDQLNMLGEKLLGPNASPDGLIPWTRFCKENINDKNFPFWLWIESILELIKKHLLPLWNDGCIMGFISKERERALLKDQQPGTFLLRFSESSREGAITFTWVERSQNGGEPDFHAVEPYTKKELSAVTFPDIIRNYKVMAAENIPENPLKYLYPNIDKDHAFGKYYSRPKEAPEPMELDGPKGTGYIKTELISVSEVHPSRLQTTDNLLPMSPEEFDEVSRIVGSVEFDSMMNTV

[12] = biological target: Proto-oncogene tyrosine-protein kinase Src (Homo sapiens) (UniProt P12931); assay: Inhibition of SRC phosphorylation (unknown origin)
DU-145 [13] = assay: Cell cycle arrest in human DU145 cells assessed as accumulation at S phase at 10 uM after 24 hrs by FACS analysis (reference value: 7.7%); assay type: functional
LNCaP = assay: Antiproliferative activity against human LNCAP cells by WST1 assay; assay type: functional, cell-based
[14] = biological target: T1, PTPN9/STAT3 (Homo sapiens); assay: Modulation of MEG2 in human DU145 cells assessed as inhibition of STAT3 activation by measuring down regulation of Mcl1 level at 10 uM after 24 hrs by Western blot method; assay type: cell-based
DU-145 [15] = assay: Cell cycle arrest in human DU145 cells assessed as accumulation at G0/G1 phase at 10 uM after 12 hrs by FACS analysis (reference value: 41.1%); assay type: functional
DU-145 [16] = assay: Antiproliferative activity against human DU145 cells after 48 hrs by WST1 assay; assay type: functional; details: DU-145, 48 h
DU-145 [17] = assay: Cell cycle arrest in human DU145 cells assessed as accumulation at G2/M phase at 10 uM after 12 hrs by FACS analysis (reference value: 24%); assay type: functional
[18] = biological target: Protein farnesyltransferase (Homo sapiens, UniProt P49354+P49356); assay: Inhibition of FPTase (unknown origin); assay type: protein-complex assay
DU-145 [19] = assay: Cell cycle arrest in human DU145 cells assessed as accumulation at G2/M phase at 10 uM after 24 hrs by FACS analysis (reference value: 24%); assay type: functional
[20] = biological target: T3, Signal transducer and activator of transcription 5A (Homo sapiens) (UniProt P42229); assay: Inhibition of STAT5 phosphorylation in human DU145 cells after 24 hrs by Western blot method; assay type: cell-based
T3 sequence (whole entry): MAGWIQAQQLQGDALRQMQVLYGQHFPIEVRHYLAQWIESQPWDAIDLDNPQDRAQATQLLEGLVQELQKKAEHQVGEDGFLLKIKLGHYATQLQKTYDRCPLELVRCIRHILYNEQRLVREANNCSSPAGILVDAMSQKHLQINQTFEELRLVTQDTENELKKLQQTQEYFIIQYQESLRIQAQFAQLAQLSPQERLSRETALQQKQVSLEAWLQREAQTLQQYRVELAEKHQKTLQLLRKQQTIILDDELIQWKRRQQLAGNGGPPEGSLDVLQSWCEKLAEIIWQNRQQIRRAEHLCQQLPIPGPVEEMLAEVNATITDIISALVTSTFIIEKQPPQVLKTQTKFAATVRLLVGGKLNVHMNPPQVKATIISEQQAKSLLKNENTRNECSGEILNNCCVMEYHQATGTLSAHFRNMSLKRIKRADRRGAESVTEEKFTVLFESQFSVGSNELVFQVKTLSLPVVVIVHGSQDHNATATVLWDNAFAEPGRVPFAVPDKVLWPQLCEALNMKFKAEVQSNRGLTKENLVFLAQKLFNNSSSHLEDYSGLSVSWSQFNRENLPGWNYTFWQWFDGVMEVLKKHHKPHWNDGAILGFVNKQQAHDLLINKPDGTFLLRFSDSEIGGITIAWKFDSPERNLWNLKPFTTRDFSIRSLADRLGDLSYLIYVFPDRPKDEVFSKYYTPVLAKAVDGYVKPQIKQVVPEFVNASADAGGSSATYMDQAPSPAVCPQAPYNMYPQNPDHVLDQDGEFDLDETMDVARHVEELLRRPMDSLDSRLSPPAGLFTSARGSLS

[21] = biological target: T1, PTPN9/STAT3 (Homo sapiens); assay: Modulation of MEG2 in human DU145 cells assessed as inhibition of STAT3 phosphorylation at Tyr-705 residue at 10 uM after 24 hrs in presence of phosphatase inhibitor Na3VO4 by Western blot method; assay type: cell-based
PC-3 = assay: Antiproliferative activity against human PC3 cells by WST1 assay; assay type: functional, cell-based
DU-145 [22] = assay: Induction of apoptosis in human DU145 cells assessed as decrease in procaspase-3 level up to 10 uM by Western blot method; assay type: functional, cell-based
DU-145 [23] = assay: Cell cycle arrest in human DU145 cells assessed as accumulation at S phase at 10 uM after 12 hrs by FACS analysis (reference value: 7.7%); assay type: functional
DU-145 [24] = assay: Effect on total STAT3 protein expression in human DU145 cells up to 20 uM after 24 hrs by Western blot method; assay type: ADME, cell-based; details: du-145, 24 h
[25] = biological target: T1, PTPN9/STAT3 (Homo sapiens); assay: Modulation of MEG2 in human DU145 cells assessed as inhibition of STAT3 activation by measuring down regulation of Bcl2 level at 10 uM after 24 hrs by Western blot method; assay type: cell-based
[26] = biological target: T1, PTPN9/STAT3 (Homo sapiens); assay: Modulation of MEG2 in human DU145 cells assessed as inhibition of STAT3 activation by measuring down regulation of Cyclin D1 level at 10 uM after 24 hrs by Western blot method; assay type: cell-based
DU-145 [27] = assay: Increase in cleaved caspase-3 level in human DU145 cells up to 10 uM after 24 hrs by Western blot method; assay type: functional, cell-based
[28] = biological target: Signal transducer and activator of transcription 3 (Homo sapiens) (UniProt P40763); assay: Inhibition of STAT3 phosphorylation at Tyr-705 residue in human DU145 cells harboring MEG2 siRNA at 10 uM after 12 hrs by Western blot method; assay type: cell-based
DU-145 [29] = assay: Cell cycle arrest in human DU145 cells assessed as accumulation at G0/G1 phase at 10 uM after 24 hrs by FACS analysis (reference value: 41.1%); assay type: functional
DU-145 [30] = assay: Increase in MEG2 protein expression in human DU145 cells at 10 uM by Western blot method; assay type: functional, cell-based; details: TDE = time-dependent effect
DU-145 [31] = assay: Cell cycle arrest in human DU145 cells assessed as accumulation at G0/G1 phase at 10 uM after 48 hrs by FACS analysis (reference value: 41.1%); assay type: functional
[32] = biological target: T1, PTPN9/STAT3 (Homo sapiens); assay: Modulation of MEG2 in human DU145 cells assessed as inhibition of STAT3 activation by measuring down regulation of Cyclin A level at 10 uM after 24 hrs by Western blot method; assay type: cell-based
DU-145 [33] = assay: Cell cycle arrest in human DU145 cells assessed as accumulation at S phase at 10 uM after 48 hrs by FACS analysis (reference value: 7.7%); assay type: functional

T1 sequence (P40763 2-770 limits assumed): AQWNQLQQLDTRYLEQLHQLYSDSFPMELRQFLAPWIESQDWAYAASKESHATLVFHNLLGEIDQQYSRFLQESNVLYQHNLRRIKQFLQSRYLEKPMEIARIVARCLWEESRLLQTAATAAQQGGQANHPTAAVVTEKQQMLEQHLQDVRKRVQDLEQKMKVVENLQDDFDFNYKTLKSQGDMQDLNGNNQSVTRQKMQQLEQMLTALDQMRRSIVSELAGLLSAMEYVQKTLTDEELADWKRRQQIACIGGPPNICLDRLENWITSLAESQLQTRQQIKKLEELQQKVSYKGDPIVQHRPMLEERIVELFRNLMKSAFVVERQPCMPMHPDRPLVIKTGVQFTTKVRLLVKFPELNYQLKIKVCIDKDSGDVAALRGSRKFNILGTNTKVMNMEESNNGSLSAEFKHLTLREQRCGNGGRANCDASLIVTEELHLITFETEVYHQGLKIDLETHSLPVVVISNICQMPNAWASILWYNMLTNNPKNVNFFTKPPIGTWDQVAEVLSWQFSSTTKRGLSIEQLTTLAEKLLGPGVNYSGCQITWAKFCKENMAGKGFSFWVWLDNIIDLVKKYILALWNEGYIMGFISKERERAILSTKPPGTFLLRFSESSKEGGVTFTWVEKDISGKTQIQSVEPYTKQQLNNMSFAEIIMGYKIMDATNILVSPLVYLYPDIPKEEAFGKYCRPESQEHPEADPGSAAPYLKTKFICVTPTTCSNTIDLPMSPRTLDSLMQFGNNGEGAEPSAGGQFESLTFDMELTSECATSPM
T1 sequence (P43378 whole entry partner): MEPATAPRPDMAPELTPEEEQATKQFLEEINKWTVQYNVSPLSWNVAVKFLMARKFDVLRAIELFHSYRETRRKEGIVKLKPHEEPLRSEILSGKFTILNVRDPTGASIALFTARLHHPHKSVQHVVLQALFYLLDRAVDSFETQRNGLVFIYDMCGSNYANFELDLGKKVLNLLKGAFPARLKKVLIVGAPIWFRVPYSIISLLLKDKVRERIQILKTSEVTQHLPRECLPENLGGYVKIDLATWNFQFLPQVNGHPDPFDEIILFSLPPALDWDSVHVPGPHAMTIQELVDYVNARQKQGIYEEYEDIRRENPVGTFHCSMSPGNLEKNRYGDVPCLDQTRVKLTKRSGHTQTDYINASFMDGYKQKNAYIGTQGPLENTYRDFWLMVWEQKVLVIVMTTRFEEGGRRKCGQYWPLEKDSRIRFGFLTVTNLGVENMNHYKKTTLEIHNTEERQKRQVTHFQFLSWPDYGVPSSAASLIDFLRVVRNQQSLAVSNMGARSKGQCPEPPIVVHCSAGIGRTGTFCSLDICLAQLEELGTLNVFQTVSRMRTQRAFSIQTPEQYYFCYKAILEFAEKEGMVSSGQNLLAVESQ
Signal transducer and activator of transcription 3 (Homo sapiens), sequence (P40763 whole entry): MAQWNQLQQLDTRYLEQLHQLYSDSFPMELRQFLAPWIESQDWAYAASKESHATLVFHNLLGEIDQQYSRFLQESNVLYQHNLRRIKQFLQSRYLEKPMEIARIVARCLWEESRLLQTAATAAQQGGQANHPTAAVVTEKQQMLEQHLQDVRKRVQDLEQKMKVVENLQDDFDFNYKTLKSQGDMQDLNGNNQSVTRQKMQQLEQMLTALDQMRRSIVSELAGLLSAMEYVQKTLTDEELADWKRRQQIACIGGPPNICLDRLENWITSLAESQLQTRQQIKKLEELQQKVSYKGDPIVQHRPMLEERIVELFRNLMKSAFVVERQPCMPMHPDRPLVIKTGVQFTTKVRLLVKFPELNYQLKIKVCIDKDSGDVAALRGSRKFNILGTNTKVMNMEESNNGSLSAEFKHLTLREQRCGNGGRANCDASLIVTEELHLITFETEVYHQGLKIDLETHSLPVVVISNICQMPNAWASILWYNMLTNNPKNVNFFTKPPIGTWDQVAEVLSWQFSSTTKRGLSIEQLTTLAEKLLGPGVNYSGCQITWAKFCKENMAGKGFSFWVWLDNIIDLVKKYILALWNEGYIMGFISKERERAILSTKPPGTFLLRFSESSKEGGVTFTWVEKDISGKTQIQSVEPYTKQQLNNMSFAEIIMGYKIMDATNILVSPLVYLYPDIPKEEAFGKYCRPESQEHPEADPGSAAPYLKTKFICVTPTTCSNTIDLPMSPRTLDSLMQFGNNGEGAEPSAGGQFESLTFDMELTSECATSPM
Proto-oncogene tyrosine-protein kinase Src (Homo sapiens), sequence (P12931 2-536 limits assumed): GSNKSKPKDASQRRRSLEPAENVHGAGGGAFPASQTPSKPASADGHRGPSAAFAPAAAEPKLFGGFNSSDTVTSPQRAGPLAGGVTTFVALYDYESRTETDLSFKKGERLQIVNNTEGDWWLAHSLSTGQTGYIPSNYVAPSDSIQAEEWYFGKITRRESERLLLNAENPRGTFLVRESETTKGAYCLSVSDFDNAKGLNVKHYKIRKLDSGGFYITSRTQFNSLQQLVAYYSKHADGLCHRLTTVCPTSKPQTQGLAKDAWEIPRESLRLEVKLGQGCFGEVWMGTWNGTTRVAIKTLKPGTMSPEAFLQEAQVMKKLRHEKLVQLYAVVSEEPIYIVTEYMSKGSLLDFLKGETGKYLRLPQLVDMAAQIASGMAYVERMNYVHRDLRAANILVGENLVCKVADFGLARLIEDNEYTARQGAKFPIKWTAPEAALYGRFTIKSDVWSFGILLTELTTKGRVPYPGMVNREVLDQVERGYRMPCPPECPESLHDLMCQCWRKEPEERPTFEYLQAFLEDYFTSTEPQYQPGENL

COC1=CC(=O)/C(=C(\C=C\c2ccccc2)OC)C1=O was tested, and the Activity (DU-145 [1]) was 20.8%, the inhibition [2] was “Dose-dependent effect” and the inhibition [3] was > 90%. The Activity (DU-145 [4]) was 4.5%, the inhibition [5] was “inactive” and the inhibition [6] was “Active”. For the same compound, the inhibition [7] was “Active”, the Activity (DU-145 [8]) was 8.5% and the inhibition [9] was “Active”. For the same compound, the Activity (DU-145 [10]) was 31.6%, the inhibition [11] was “inactive” and the inhibition [12] was “inactive”. For the same compound, the Activity (DU-145 [13]) was 4.1%, the Activity (LNCaP) was “inactive” and the inhibition [14] was “Active”. For the same compound, the Activity (DU-145 [15]) was 43.5%, the GI50 (DU-145 [16]) was 15 µM and the Activity (DU-145 [17]) was 34%. The IC50 [18] was > 40 µM, the Activity (DU-145 [19]) was 23.6% and the inhibition [20] was “inactive”. For the same compound, the inhibition [21] was “inactive”, the Activity (PC-3) was “inactive” and the Activity (DU-145 [22]) was “Active”. The Activity (DU-145 [23]) was 7.8%, the Activity (DU-145 [24]) was “Non-Toxic” and the inhibition [25] was “Active”. The inhibition [26] was “Active”, the Activity (DU-145 [27]) was “inactive” and the inhibition [28] was “inactive”. For the same compound, the Activity (DU-145 [29]) was 50.3%, the Activity (DU-145 [30]) was “Tde” and the Activity (DU-145 [31]) was 36.7%. The inhibition [32] was “Active” and the Activity (DU-145 [33]) was 5.6%.
